Experimental data taken from patent US20230073777A1, “CYCLIC-AMP RESPONSE ELEMENT BINDING PROTEIN (CBP) AND/OR ADENOVIRAL E1A BINDING PROTEIN OF 300 KDA (P300) DEGRADATION COMPOUNDS AND METHODS OF USE” (CULLGEN (SHANGHAI), INC., priority 2019, published 2023).
Where two headings read alike, the source gives them in different places.

What was measured:
[1] = test system: LNCaP cells; assay: LNCaP cell viability assay (CellTiter-Glo); format: cell-based; details: Homo sapiens, 72 h, LNCaP prostate cancer cell viability inhibition, 3 days
Method in brief: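 LNCaP cells, 5000/well, exposed to compounds in 12-point 3-fold serial dilution (top 10 μM) for 3 days. Viability by CellTiter-Glo luminescence, normalized to untreated cells; IC50 by least-squares nonlinear regression.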

[2] = target: P300 (Homo sapiens, UniProt Q09472); assay: Immunoblotting of P300 protein levels in LNCaP or 22RV1 cells; format: cell-based; parameters: LNCaP or 22RV1 cells that express CBP/P300 proteins were treated with GNE-781 or the bivalent compounds; endogenous in cells; host or cells: LNCaP (clone FGC) or 22RV1 cells; details: read-out: Degradation (10 nM)
Method in brief: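 LNCaP or 22RV1 cells treated with compounds for indicated hours, DMSO as negative control. RIPA lysates resolved by SDS-PAGE and immunoblotted for P300 or CBP, tubulin or vinculin as loading control; chemiluminescent bands quantitated.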

[3] = percentage of inhibition of p300 at 10 nM (Table 2)
[4] = percentage of inhibition of p300 at 10 nM (Table 3)

P300, sequence (Q09472 whole entry): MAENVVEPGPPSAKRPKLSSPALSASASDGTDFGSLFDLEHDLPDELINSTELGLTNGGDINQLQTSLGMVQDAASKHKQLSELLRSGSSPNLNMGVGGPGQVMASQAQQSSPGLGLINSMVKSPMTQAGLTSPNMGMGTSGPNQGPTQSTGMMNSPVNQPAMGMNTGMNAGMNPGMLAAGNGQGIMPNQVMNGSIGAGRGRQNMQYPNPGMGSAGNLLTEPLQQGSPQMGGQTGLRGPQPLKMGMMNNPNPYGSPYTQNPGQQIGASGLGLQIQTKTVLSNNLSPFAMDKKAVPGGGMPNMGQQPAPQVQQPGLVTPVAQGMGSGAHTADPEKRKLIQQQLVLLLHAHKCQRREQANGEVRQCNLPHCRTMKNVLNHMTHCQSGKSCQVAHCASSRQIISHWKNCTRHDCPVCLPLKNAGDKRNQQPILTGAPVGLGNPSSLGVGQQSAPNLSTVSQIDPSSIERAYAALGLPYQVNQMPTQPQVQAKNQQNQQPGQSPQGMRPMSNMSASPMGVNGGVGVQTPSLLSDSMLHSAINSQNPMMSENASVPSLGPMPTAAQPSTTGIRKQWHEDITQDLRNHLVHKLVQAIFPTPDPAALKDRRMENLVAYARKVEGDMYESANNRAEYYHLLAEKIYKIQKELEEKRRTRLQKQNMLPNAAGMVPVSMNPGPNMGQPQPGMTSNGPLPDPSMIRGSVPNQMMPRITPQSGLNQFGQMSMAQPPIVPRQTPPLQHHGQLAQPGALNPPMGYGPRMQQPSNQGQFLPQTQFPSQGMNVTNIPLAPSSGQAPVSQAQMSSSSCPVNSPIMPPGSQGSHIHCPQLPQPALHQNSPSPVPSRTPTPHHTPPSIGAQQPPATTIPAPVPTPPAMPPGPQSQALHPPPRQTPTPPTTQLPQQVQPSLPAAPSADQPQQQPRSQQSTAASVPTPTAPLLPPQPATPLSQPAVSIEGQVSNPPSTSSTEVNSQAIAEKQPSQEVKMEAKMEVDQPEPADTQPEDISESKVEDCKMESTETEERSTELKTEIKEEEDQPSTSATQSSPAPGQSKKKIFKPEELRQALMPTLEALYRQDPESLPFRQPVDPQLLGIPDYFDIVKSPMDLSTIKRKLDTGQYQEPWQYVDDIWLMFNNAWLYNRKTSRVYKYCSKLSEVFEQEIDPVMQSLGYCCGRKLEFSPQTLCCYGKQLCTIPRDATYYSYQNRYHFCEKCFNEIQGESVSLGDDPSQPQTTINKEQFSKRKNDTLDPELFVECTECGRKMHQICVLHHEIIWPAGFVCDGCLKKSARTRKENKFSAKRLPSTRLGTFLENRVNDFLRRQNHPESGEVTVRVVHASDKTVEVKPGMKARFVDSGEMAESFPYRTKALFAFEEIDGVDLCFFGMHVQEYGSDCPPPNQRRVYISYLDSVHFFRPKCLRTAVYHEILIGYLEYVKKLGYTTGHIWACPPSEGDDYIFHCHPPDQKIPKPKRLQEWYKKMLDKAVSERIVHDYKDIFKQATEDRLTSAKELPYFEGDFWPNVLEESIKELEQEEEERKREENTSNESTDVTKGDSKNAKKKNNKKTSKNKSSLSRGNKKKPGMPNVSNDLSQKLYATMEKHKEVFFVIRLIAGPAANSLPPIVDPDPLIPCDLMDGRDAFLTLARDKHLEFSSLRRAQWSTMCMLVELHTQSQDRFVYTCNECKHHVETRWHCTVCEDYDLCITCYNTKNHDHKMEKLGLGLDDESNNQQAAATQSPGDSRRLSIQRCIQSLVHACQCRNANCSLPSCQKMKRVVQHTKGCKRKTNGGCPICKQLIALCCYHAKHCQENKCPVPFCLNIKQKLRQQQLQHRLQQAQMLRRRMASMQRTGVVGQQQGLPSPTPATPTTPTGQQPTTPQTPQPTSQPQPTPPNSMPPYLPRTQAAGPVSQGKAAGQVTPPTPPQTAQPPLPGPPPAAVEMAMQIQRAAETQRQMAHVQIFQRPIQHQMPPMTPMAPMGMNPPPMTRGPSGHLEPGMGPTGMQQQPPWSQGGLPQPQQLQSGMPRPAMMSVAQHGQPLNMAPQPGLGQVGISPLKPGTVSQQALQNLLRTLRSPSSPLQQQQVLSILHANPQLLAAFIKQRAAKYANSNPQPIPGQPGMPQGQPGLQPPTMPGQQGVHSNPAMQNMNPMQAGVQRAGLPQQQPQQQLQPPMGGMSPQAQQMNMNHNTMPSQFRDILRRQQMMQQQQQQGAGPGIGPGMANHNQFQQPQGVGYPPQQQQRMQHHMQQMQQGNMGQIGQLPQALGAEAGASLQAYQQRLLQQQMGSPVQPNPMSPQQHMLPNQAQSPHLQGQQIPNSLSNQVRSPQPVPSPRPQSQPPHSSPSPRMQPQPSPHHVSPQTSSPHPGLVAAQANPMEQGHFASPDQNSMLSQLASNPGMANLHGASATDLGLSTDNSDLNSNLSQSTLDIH

| IC50 ([1]; CellTiter-Glo (Table 2)) | inhibition at 0.01 µM [2, 3] | IC50 ([1]; CellTiter-Glo (Table 3)) | inhibition at 0.01 µM [2, 4] | SMILES |
| --- | --- | --- | --- | --- |
|  |  | > 10000 nM | < 20% | CC(=O)N1CCc2c(c(N3CCCc4cc(-c5cnn(C)c5)c(C(F)F)cc43)nn2C2CCN(CCCNC(=O)CNc3cccc4c3C(=O)N(C3CCC(=O)NC3=O)C4=O)CC2)C1 (stereo not shown) [P-124, N-(3-(4-(5-Acetyl-3-(7-(difluoromethyl)-6-(1-methyl-1H-pyrazol-4-yl)-3,4-dihydroquinolin-1(2H)-yl)-4,5,6,7-tetrahydro-1H-pyrazolo[4,3-c]pyridin-1-yl)piperidin-1-yl)propyl)-2-((2-(2,6-dioxopiperidin-3-yl)-1,3-dioxoisoindolin-4-yl)amino)acetamide] |
|  |  | 2.1 nM | > 80% | CNC(=O)N1CCc2c(c(N3CCCc4cc(-c5cnn(C)c5)c(C(F)F)cc43)nn2C2CCN(CCCCCCOc3cccc4c3C(=O)N(C3CCC(=O)NC3=O)C4=O)CC2)C1 (stereo not shown) [P-091, 3-(7-(difluoromethyl)-6-(1-methyl-1H-pyrazol-4-yl)-3,4-dihydroquinolin-1(2H)-yl)-1-(1-(6-((2-(2,6-dioxopiperidin-3-yl)-1,3-dioxoisoindolin-4-yl)oxy)hexyl)piperidin-4-yl)-N-methyl-1,4,6,7-tetrahydro-5H-pyrazolo[4,3-c]pyridine-5-carboxamide] |
|  |  | 877 nM | 20 to 50% | CNC(=O)N1CCc2c(c(N3CCCc4cc(-c5cnn(C)c5)c(C(F)F)cc43)nn2C2CCN(C(=O)CCCCCCNc3cccc4c3n(C)c(=O)n4C3CCC(=O)NC3=O)CC2)C1 (stereo not shown) [P-114, 3-(7-(Difluoromethyl)-6-(1-methyl-1H-pyrazol-4-yl)-3,4-dihydroquinolin-1(2H)-yl)-1-(1-(7-((1-(2,6-dioxopiperidin-3-yl)-3-methyl-2-oxo-2,3-dihydro-1H-benzo[d]imidazol-4-yl)amino)heptanoyl)piperidin-4-yl)-N-methyl-1,4,6,7-tetrahydro-5H-pyrazolo[4,3-c]pyridine-5-carboxamide] |
|  |  | 41.2 nM | > 80% | CC(=O)N1CCc2c(c(N3CCCc4cc(-c5cnn(C)c5)c(C(F)F)cc43)nn2C2CCN(C(=O)CCCCCOc3cccc4c3C(=O)N(C3CCC(=O)NC3=O)C4=O)CC2)C1 (stereo not shown) [P-117, 4-((6-(4-(5-Acetyl-3-(7-(difluoromethyl)-6-(1-methyl-1H-pyrazol-4-yl)-3,4-dihydroquinolin-1(2H)-yl)-4,5,6,7-tetrahydro-1H-pyrazolo[4,3-c]pyridin-1-yl)piperidin-1-yl)-6-oxohexyl)oxy)-2-(2,6-dioxopiperidin-3-yl)isoindoline-1,3-dione] |

The next lines start with the compound.

| SMILES | IC50 ([1]; CellTiter-Glo (Table 2)) | inhibition at 0.01 µM [2, 3] | IC50 ([1]; CellTiter-Glo (Table 3)) | inhibition at 0.01 µM [2, 4] |
| --- | --- | --- | --- | --- |
| CNC(=O)N1CCc2c(c(N3CCCc4cc(-c5cnn(CC(=O)NCCC(=O)N[C@H](C(=O)N6C[C@H](O)C[C@H]6C(=O)NCc6ccc(-c7scnc7C)cc6)C(C)(C)C)c5)c(C(F)F)cc43)nn2C2CCOCC2)C1 [P-045, 3-(7-(Difluoromethyl)-6-(1-(2-((3-(((S)-1-((2S,4R)-4-hydroxy-2-((4-(4-methylthiazol-5-yl)benzyl)carbamoyl)pyrrolidin-1-yl)-3,3-dimethyl-1-oxobutan-2-yl)amino)-3-oxopropyl)amino)-2-oxoethyl)-1H-pyrazol-4-yl)-3,4-dihydroquinolin-1(2H)-yl)-N-methyl-1-(tetrahydro-2H-pyran-4-yl)-1,4,6,7-tetrahydro-5H-pyrazolo[4,3-c]pyridine-5-carboxamide] | > 10000 nM | < 20% |  |  |
| CC(=O)N1CCc2c(c(N3CCCc4cc(-c5cnn(C)c5)c(C(F)F)cc43)nn2C2CCN(Cc3ccc(COc4cccc5c4CN(C4CCC(=O)NC4=O)C5=O)cc3)CC2)C1 (stereo not shown) [P-166, 3-(4-((4-((4-(5-acetyl-3-(7-(difluoromethyl)-6-(1-methyl-1H-pyrazol-4-yl)-3,4-dihydroquinolin-1(2H)-yl)-4,5,6,7-tetrahydro-1H-pyrazolo[4,3-c]pyridin-1-yl)piperidin-1-yl)methyl)benzyl)oxy)-1-oxoisoindolin-2-yl)piperidine-2,6-dione] |  |  | 0.3 nM | > 80% |
| CNC(=O)N1CCc2c(c(N3CCCc4cc(-c5cnn(C)c5)c(C(F)F)cc43)nn2C2CCN(C(=O)CCOCCOCCNc3ccc4c(c3)C(=O)N(C3CCC(=O)NC3=O)C4=O)CC2)C1 (stereo not shown) [P-009, 3-(7-(difluoromethyl)-6-(1-methyl-1H-pyrazol-4-yl)-3,4-dihydroquinolin-1(2H)-yl)-1-(1-(3-(2-(2-((2-(2,6-dioxopiperidin-3-yl)-1,3-dioxoisoindolin-5-yl)amino)ethoxy)ethoxy)propanoyl)piperidin-4-yl)-N-methyl-1,4,6,7-tetrahydro-5H-pyrazolo[4,3-c]pyridine-5-carboxamide] | 114 nM | 20 to 50% |  |  |
| CNC(=O)N1CCc2c(c(N3CCCc4cc(-c5cnn(C)c5)c(C(F)F)cc43)nn2C2CCN(C(=O)CCCCCNc3ccc4c(c3)n(C)c(=O)n4C3CCC(=O)NC3=O)CC2)C1 (stereo not shown) [P-115, 3-(7-(difluoromethyl)-6-(1-methyl-1H-pyrazol-4-yl)-3,4-dihydroquinolin-1(2H)-yl)-1-(1-(6-((1-(2,6-dioxopiperidin-3-yl)-3-methyl-2-oxo-2,3-dihydro-1H-benzo[d]imidazol-5-yl)amino)hexanoyl)piperidin-4-yl)-N-methyl-1,4,6,7-tetrahydro-5H-pyrazolo[4,3-c]pyridine-5-carboxamide] |  |  | 7.1 nM | > 80% |
| CNC(=O)N1CCc2c(c(N3CCCc4cc(-c5cnn(C)c5)c(C(F)F)cc43)nn2C2CCN(C(=O)COCCOCCOCCOCCOCC(=O)N[C@H](C(=O)N3C[C@H](O)C[C@H]3C(=O)NCc3ccc(-c4scnc4C)cc3)C(C)(C)C)CC2)C1 [P-071, 3-(7-(Difluoromethyl)-6-(1-methyl-1H-pyrazol-4-yl)-3,4-dihydroquinolin-1(2H)-yl)-1-(1-((S)-19-((2S,4R)-4-hydroxy-2-((4-(4-methylthiazol-5-yl)benzyl)carbamoyl)pyrrolidine-1-carbonyl)-20,20-dimethyl-17-oxo-3,6,9,12,15-pentaoxa-18-azahenicosanoyl)piperidin-4-yl)-N-methyl-1,4,6,7-tetrahydro-5H-pyrazolo[4,3-c]pyridine-5-carboxamide] |  |  | 107 nM | 20 to 50% |
| CNC(=O)N1CCc2c(c(N3CCCc4cc(-c5cnn(C)c5)c(C(F)F)cc43)nn2C2CCN(C(=O)CCOCCOCCOCCOCCC(=O)N[C@H](C(=O)N3C[C@H](O)C[C@H]3C(=O)NCc3ccc(-c4scnc4C)cc3)C(C)(C)C)CC2)C1 [P-070, 3-(7-(Difluoromethyl)-6-(1-methyl-1H-pyrazol-4-yl)-3,4-dihydroquinolin-1(2H)-yl)-1-(1-((S)-18-((2S,4R)-4-hydroxy-2-((4-(4-methylthiazol-5-yl)benzyl)carbamoyl)pyrrolidine-1-carbonyl)-19,19-dimethyl-16-oxo-4,7,10,13-tetraoxa-17-azaicosanoyl)piperidin-4-yl)-N-methyl-1,4,6,7-tetrahydro-5H-pyrazolo[4,3-c]pyridine-5-carboxamide] |  |  | 31.9 nM | < 20% |
| CNC(=O)N1CCc2c(c(N3CCCc4cc(-c5cnn(C)c5)c(C(F)F)cc43)nn2C2CCN(CCCCCCNc3cccc4c3C(=O)N(C3CCC(=O)NC3=O)C4=O)CC2)C1 (stereo not shown) [P-090, 3-(7-(difluoromethyl)-6-(1-methyl-1H-pyrazol-4-yl)-3,4-dihydroquinolin-1(2H)-yl)-1-(1-(6-((2-(2,6-dioxopiperidin-3-yl)-1,3-dioxoisoindolin-4-yl)amino)hexyl)piperidin-4-yl)-N-methyl-1,4,6,7-tetrahydro-5H-pyrazolo[4,3-c]pyridine-5-carboxamide] |  |  | 1 nM | > 80% |
| CNC(=O)N1CCc2c(c(N3CCCc4cc(-c5cnn(C)c5)c(C(F)F)cc43)nn2C2CCN(C(=O)CCCCNc3cccc4c3n(C)c(=O)n4C3CCC(=O)NC3=O)CC2)C1 (stereo not shown) [P-127, 3-(7-(Difluoromethyl)-6-(1-methyl-1H-pyrazol-4-yl)-3,4-dihydroquinolin-1(2H)-yl)-1-(1-(5-((1-(2,6-dioxopiperidin-3-yl)-3-methyl-2-oxo-2,3-dihydro-1H-benzo[d]imidazol-4-yl)amino)pentanoyl)piperidin-4-yl)-N-methyl-1,4,6,7-tetrahydro-5H-pyrazolo[4,3-c]pyridine-5-carboxamide] |  |  | 402 nM | 20 to 50% |
| CNC(=O)N1CCc2c(c(N3CCCc4cc(-c5cnn(C)c5)c(C(F)F)cc43)nn2C2CCN(C(=O)CCOCCOCCOCCC(=O)N[C@H](C(=O)N3C[C@H](O)C[C@H]3C(=O)NCc3ccc(-c4scnc4C)cc3)C(C)(C)C)CC2)C1 [P-069, 3-(7-(Difluoromethyl)-6-(1-methyl-1H-pyrazol-4-yl)-3,4-dihydroquinolin-1(2H)-yl)-1-(1-((S)-15-((2S,4R)-4-hydroxy-2-((4-(4-methylthiazol-5-yl)benzyl)carbamoyl)pyrrolidine-1-carbonyl)-16,16-dimethyl-13-oxo-4,7,10-trioxa-14-azaheptadecanoyl)piperidin-4-yl)-N-methyl-1,4,6,7-tetrahydro-5H-pyrazolo[4,3-c]pyridine-5-carboxamide] |  |  | 36.1 nM | < 20% |
| CC(=O)N1CCc2c(c(N3CCCc4cc(-c5cnn(C)c5)c(C(F)F)cc43)nn2C2CCN(C(=O)CCCCCNc3ccc4c(c3)n(C)c(=O)n4C3CCC(=O)NC3=O)CC2)C1 (stereo not shown) [P-116, 3-(5-((6-(4-(5-acetyl-3-(7-(difluoromethyl)-6-(1-methyl-1H-pyrazol-4-yl)-3,4-dihydroquinolin-1(2H)-yl)-4,5,6,7-tetrahydro-1H-pyrazolo[4,3-c]pyridin-1-yl)piperidin-1-yl)-6-oxohexyl)amino)-3-methyl-2-oxo-2,3-dihydro-1H-benzo[d]imidazol-1-yl)piperidine-2,6-dione] |  |  | 9.6 nM | > 80% |
